{"source": "patent US9968619B2", "about": "“Method of treating triple-negative breast cancer using thienotriazolodiazepine compounds” (ONCOETHIX GMBH, priority 2014, dated 2018)", "key": {"HCC1937 [1]": {"tested_on": "HCC1937", "assay": "Western blotting and RT-PCR expression, HCC1937", "type": "cell-based, human", "conditions": "650 nM; 24, 48 and 72 h", "description": "(§1) Logarithmic transformation of the variable was applied before the ANOVA test if required. As shown in FIG. 16A-C, Western blots are representative of three independent experiments where each bar and vertical line represents the mean±SEM, respectively (n=3). As shown in FIG. 15D-15G, C-MYC protein and mRNA levels were unchanged by Compound (1-1) treatment in all the three cell lines.\n(§2) CDKN1A (p21) mRNA levels were increased in all three cell models (p<0.001). […] Significant differences in the mRNA levels were determined by one-way ANOVA test (p<0.01) followed by SNK a posteriori test (*p<0.05, **p<0.01, […]). Logarithmic transformation of the variable was applied before the ANOVA test if required. Each bar and vertical line represents the mean±SEM, respectively (n=3). Western blots are representative of 3 independent experiments."}, "MDA-MB-468 [2]": {"tested_on": "MDA-MB-468", "assay": "Western blotting and RT-PCR expression, MDA-MB-468", "type": "cell-based, human", "conditions": "24, 48 and 72 h", "description": "as §1, §2"}, "[3]": {"assay": "Pharmacokinetics and oral bioavailability in dogs", "type": "in vivo", "conditions": "male, beagle, plasma; dog; 1 mg/kg IV; solution in water:ethanol:PEG400 (60:20:20)", "description": "Blood samples were collected from the jugular vein of each animal at 0 (pre-dose), 5, 15, and 30 minutes and 1, 2, 4, 8, 12, and 24 hours following intravenous administration and at 0 (pre-dose), 15 and 30 minutes and 1, 2, 4, 8, 12, and 24 hours following oral gavage administration. The amount of compound (1-1) present in each sample was detected using a qualified LC-MS/MS method with a lower limit of quantification of 0.5 ng/mL. The area under the plasma concentration-time curve (AUC) was determined by use of the linear trapezoidal rule up to the last measurable concentration without extrapolation of the terminal elimination phase to infinity. The elimination half-life (t1/2) was calculated by least-squares regression analysis of the terminal linear part of the log concentration-ime curve. The maximum plasma concentration (Cmax) and the time to Cmax (tmax) were derived directly from the plasma concentration data. The oral bioavailability (F) was calculated by dividing the dose normalized AUC after oral administration by the dose normalized AUC after intravenous administration and reported as percentages (%)."}, "MDA-MB-231 [4]": {"tested_on": "MDA-MB-231", "assay": "MTT proliferation assay, MDA-MB-231", "conditions": "Homo sapiens"}, "MDA-MB-231 [5]": {"tested_on": "MDA-MB-231", "assay": "Cell counting proliferation, MDA-MB-231", "type": "cell-based", "conditions": "Homo sapiens"}, "HCC1937 [6]": {"tested_on": "HCC1937", "assay": "Cell cycle after drug washout, HCC1937", "type": "cell-based, human", "conditions": "650 nM for 72 h, then 48 h of drug washout", "description": "(§3) Cells were staining with propidium iodide then analyzed using a FACScan flow cytometer. […] After 72 h of treatment, control and treated cells were washed with PBS and re-incubated with compound (1-1) free medium (drug washout). As show in FIG. 14A-14C, significant differences in the percentage of compound (1-1)-treated cells in the G1, S and G2/M phases with respect to untreated controls were determined by a one-way ANOVA test (p<0.001) followed by an SNK a posteriori test. After washout, significant differences in the percentage of cells in a given cell cycle phase between control and pre-treated cells were determined with the Student t-test for independent samples with equal or different variance, as appropriate. * , × and # means significant difference between treated cells respect and controls in G1 phase (*p<0.05, **p<0.01), G2/M phase (×p<0.05, ××p<0.01) and S phase p<0.05, ## p<0.01), respectively. Each bar and vertical line represents the mean±SEM, respectively (n≥3)."}, "HCC1937 [7]": {"tested_on": "HCC1937", "assay": "Cell counting proliferation, HCC1937", "type": "cell-based", "conditions": "Homo sapiens"}, "MDA-MB-231 [8]": {"tested_on": "MDA-MB-231", "assay": "Western blotting and RT-PCR expression, MDA-MB-231", "type": "cell-based, human", "conditions": "75 nM; 24, 48 and 72 h", "description": "as §1, §2"}, "MDA-MB-468 [9]": {"tested_on": "MDA-MB-468", "assay": "MTT proliferation assay, MDA-MB-468", "conditions": "for Emax / GI50: Homo sapiens"}, "MDA-MB-468 [10]": {"tested_on": "MDA-MB-468", "assay": "Cell cycle after drug washout, MDA-MB-468", "type": "cell-based, human", "conditions": "650 nM for 72 h, then drug washout", "description": "as §3"}, "MDA-MB-468 [11]": {"tested_on": "MDA-MB-468", "assay": "Cell counting proliferation, MDA-MB-468", "type": "cell-based", "conditions": "Homo sapiens"}, "[12]": {"conditions": "650 nM, listed as compound (1-1), dihydrate"}, "[13]": {"conditions": "MDA-MB-231, 48 h, 48 h exposure, hypoxia (0.1% O2)"}, "[14]": {"conditions": "MDA-MB-231, 48 h, 48 h exposure, normoxia"}, "[15]": {"conditions": "MDA-MB-231, 72 h, 72 h exposure, hypoxia (0.1% O2)"}, "[16]": {"conditions": "MDA-MB-231, 72 h, 72 h exposure, normoxia"}, "[17]": {"conditions": "HCC1937, 48 h, 48 h exposure, hypoxia (0.1% O2)"}, "[18]": {"conditions": "HCC1937, 72 h, 72 h exposure, hypoxia (0.1% O2)"}, "[19]": {"conditions": "HCC1937, 72 h, 72 h exposure, normoxia"}, "[20]": {"conditions": "MDA-MB-468, 48 h, 48 h exposure, hypoxia (0.1% O2)"}, "[21]": {"conditions": "MDA-MB-468, 48 h, 48 h exposure, hypoxia (0.1% O2), * = apparent value"}, "[22]": {"conditions": "MDA-MB-468, 48 h, 48 h exposure, normoxia"}, "[23]": {"conditions": "MDA-MB-468, 72 h, 72 h exposure, hypoxia (0.1% O2)"}, "[24]": {"conditions": "MDA-MB-468, 72 h, 72 h exposure, normoxia"}}, "note": "“Also recorded” adds a separate entry of the source.", "data": [{"smiles": "Cc1sc2c(c1C)C(c1ccc(Cl)cc1)=N[C@@H](CC(=O)Nc1ccc(O)cc1)c1nnc(C)n1-2", "note": "[Compound (1-1), 2-[(6S)-4-(4-chlorophenyl)-2,3,9-trimethyl-6H-thienol[3,2-f]-[1,2,4]triazolo[4,3-a][1,4]diazepin-6-yl]-N-(4-hydroxyphenyl)acetamide dihydrate]", "values": [{"measurement": "mRNA levels of BRD3", "setting": "HCC1937 [1]", "result": "reduced"}, {"measurement": "BRD2 levels", "setting": "MDA-MB-468 [2]; 650 nM", "result": "increased"}, {"measurement": "mRNA levels of BRD3", "setting": "MDA-MB-468 [2]; 650 nM", "result": "reduced"}, {"measurement": "mRNA levels of BRD4", "setting": "MDA-MB-468 [2]; 650 nM", "result": "downregulated"}, {"measurement": "c-Myc expression (mRNA and protein)", "setting": "MDA-MB-468 [2]; 650 nM, dihydrate", "result": "down-regulated"}, {"measurement": "c-Myc expression (mRNA and protein)", "setting": "MDA-MB-468 [2]; [12]", "result": "downregulated; also recorded: downregulation"}, {"measurement": "mRNA levels of n-Myc", "setting": "MDA-MB-468 [2]; [12]", "result": "downregulated; also recorded: downregulation"}, {"measurement": "expression levels of c-MYC and n-MYC", "setting": "MDA-MB-468 [2]; RT-PCR, 500 nM", "result": "marked (p<0.05) reduction"}, {"measurement": "Cmax", "setting": "[3]", "result": 0.769, "unit": "ng/mL"}, {"measurement": "Emax", "setting": "MDA-MB-231 [4]; [13]", "result": 68, "unit": "%"}, {"measurement": "GI50", "setting": "MDA-MB-231 [4]; [13]", "result": 63.3, "unit": "nM"}, {"measurement": "Emax", "setting": "MDA-MB-231 [4]; [14]", "result": 71, "unit": "%"}, {"measurement": "GI50", "setting": "MDA-MB-231 [4]; [14]", "result": 132, "unit": "nM"}, {"measurement": "Emax", "setting": "MDA-MB-231 [4]; [15]", "result": 83, "unit": "%"}, {"measurement": "GI50", "setting": "MDA-MB-231 [4]; [15]", "result": 48.2, "unit": "nM"}, {"measurement": "Emax", "setting": "MDA-MB-231 [4]; [16]", "result": 83, "unit": "%"}, {"measurement": "GI50", "setting": "MDA-MB-231 [4]; [16]", "result": 81.7, "unit": "nM"}, {"measurement": "Emax", "setting": "MDA-MB-231 [5]; [13]", "result": 67, "unit": "%"}, {"measurement": "GI50", "setting": "MDA-MB-231 [5]; [13]", "result": 144, "unit": "nM"}, {"measurement": "Emax", "setting": "MDA-MB-231 [5]; [14]", "result": 71, "unit": "%"}, {"measurement": "GI50", "setting": "MDA-MB-231 [5]; [14]", "result": 92.2, "unit": "nM"}, {"measurement": "Emax", "setting": "MDA-MB-231 [5]; [15]", "result": 82, "unit": "%"}, {"measurement": "GI50", "setting": "MDA-MB-231 [5]; [15]", "result": 49.1, "unit": "nM"}, {"measurement": "Emax", "setting": "MDA-MB-231 [5]; [16]", "result": 89, "unit": "%"}, {"measurement": "GI50", "setting": "MDA-MB-231 [5]; [16]", "result": 55.9, "unit": "nM"}, {"measurement": "cell cycle pattern after drug washout", "setting": "HCC1937 [6]", "result": "recovered the control cell cycle pattern"}, {"measurement": "Emax", "setting": "HCC1937 [7]; [17]", "result": 27, "unit": "%"}, {"measurement": "GI50", "setting": "HCC1937 [7]; [17]", "result": "> 6000", "unit": "nM"}, {"measurement": "GI50", "setting": "HCC1937 [7]; HCC1937, 48 h, 48 h exposure, normoxia", "result": "> 6000", "unit": "nM"}, {"measurement": "Emax", "setting": "HCC1937 [7]; HCC1937, 48 h, 48 h exposure, normoxia, percent with respect to control untreated cells", "result": 31, "unit": "%"}, {"measurement": "Emax", "setting": "HCC1937 [7]; [18]", "result": 54, "unit": "%"}, {"measurement": "GI50", "setting": "HCC1937 [7]; [18]", "result": 247, "unit": "nM"}, {"measurement": "Emax", "setting": "HCC1937 [7]; [19]", "result": 70, "unit": "%"}, {"measurement": "GI50", "setting": "HCC1937 [7]; [19]", "result": 262, "unit": "nM"}, {"measurement": "BRD2 levels", "setting": "MDA-MB-231 [8]", "result": "increased"}, {"measurement": "Emax", "setting": "MDA-MB-468 [9]; [20]", "result": 53, "unit": "%"}, {"measurement": "GI50", "setting": "MDA-MB-468 [9]; [21]", "result": 258, "unit": "nM"}, {"measurement": "Emax", "setting": "MDA-MB-468 [9]; [22]", "result": "< 10", "unit": "%"}, {"measurement": "GI50", "setting": "MDA-MB-468 [9]; [22]", "result": "> 6000", "unit": "nM"}, {"measurement": "Emax", "setting": "MDA-MB-468 [9]; [23]", "result": 77, "unit": "%"}, {"measurement": "GI50", "setting": "MDA-MB-468 [9]; [23]", "result": 296, "unit": "nM"}, {"measurement": "Emax", "setting": "MDA-MB-468 [9]; [24]", "result": 42, "unit": "%"}, {"measurement": "GI50", "setting": "MDA-MB-468 [9]; MDA-MB-468, 72 h, 72 h exposure, normoxia, * = apparent value", "result": 448, "unit": "nM"}, {"measurement": "effect of hypoxia on antiproliferative activity", "setting": "MDA-MB-468 [9]; hypoxia (0.1% O2) vs normoxia, MTT assay and cell counting", "result": "significantly (p<0.05) increased"}, {"measurement": "cell cycle pattern after drug washout", "setting": "MDA-MB-468 [10]", "result": "substantial (p<0.05) accumulation of cells in G2/M phase"}, {"measurement": "Emax", "setting": "MDA-MB-468 [11]; [20]", "result": 50, "unit": "%"}, {"measurement": "GI50", "setting": "MDA-MB-468 [11]; [21]", "result": 60.6, "unit": "nM"}, {"measurement": "Emax", "setting": "MDA-MB-468 [11]; [22]", "result": 30, "unit": "%"}, {"measurement": "GI50", "setting": "MDA-MB-468 [11]; [22]", "result": "> 6000", "unit": "nM"}, {"measurement": "Emax", "setting": "MDA-MB-468 [11]; [23]", "result": 71, "unit": "%"}, {"measurement": "GI50", "setting": "MDA-MB-468 [11]; [23]", "result": 251, "unit": "nM"}, {"measurement": "Emax", "setting": "MDA-MB-468 [11]; [24]", "result": 80, "unit": "%"}, {"measurement": "GI50", "setting": "MDA-MB-468 [11]; [24]", "result": 304, "unit": "nM"}]}]}
